Source: a melting point compilation (Tetko et al.; mined from patent text by program, amines drawn as free bases though some values may be those of a salt)

| Structure (SMILES) | melting point |
| --- | --- |
| [N-]=[N+]=NCC(=O)N1CC(c2ccccc2)c2ccccc21 (configuration not stated) | 72 to 73 °C |
| Nc1nn(-c2ccccc2)cc1C=O | 129 to 130 °C |
| NC(=S)Nc1ccc(CCNCc2cccc(Cl)c2)cc1 | 132 to 134 °C |
| Cc1cc(COc2ccc(S(=O)(=O)NC[C@@H](C(=O)NO)N3CCN(Cc4ccc(C(F)(F)F)cc4)CC3)cc2)c2ccccc2n1 | 148 °C |
| CC(=O)Nc1ccc(S(=O)(=O)Nc2nnc(CC(=O)O)s2)cc1 | 206 to 207 °C |
| O=[N+]([O-])C(Sc1ccc(Cl)cc1)=C1NCCN1Cc1ccc(Cl)nc1 | 159 to 161 °C |
| O=C(Nc1ccc(-c2ccc(-c3ccc(NC(=O)c4ccccc4)cc3)o2)cc1)c1ccccc1 | 312 to 314 °C |
| CC(C)(C=NO)Cc1ccc(Cl)c(Cl)c1 | 84 °C |
| CCSc1nsc(NC(=O)NC)c1C#N | 246 °C |
| Nc1ccc([N+](=O)[O-])cc1OCCCCOc1cc([N+](=O)[O-])ccc1N | 226 to 228 °C |
| CC(=O)N1C(C)(C)CC(OC(=O)CC(c2cc(C(C)(C)C)c(O)cc2C)c2cc(C(C)(C)C)c(O)cc2C)CC1(C)C | 270 °C |
| CCCCCCCCCCCCCCCCCCOc1ccc(C(C)=O)cc1 | 69 to 70 °C |
| COc1ccc(C(Cl)=C(C#N)c2ccc(OC)cc2)cc1 | 140 to 142 °C |
| CNC(=O)c1cccc(NC(=O)Cc2cc(OC)c(OC)c(OC)c2)c1 | 81 to 82 °C |
| CCn1nnnc1Cc1ccc([N+](=O)[O-])cc1 | 104 to 105 °C |
| Oc1ccc(SCCCN2CCOCC2)c(O)c1 | 99 °C |
| OCCc1cn2ccccc2n1 | 120 to 127 °C |
| CCOc1cccc(NC(=O)Nc2ccc(N3CCN(C(=O)Nc4ccc(OCCO)cc4C(F)(F)F)CC3)cc2)c1 | 108 to 110 °C |
| CC(C)c1[nH]cnc1CO | 121 to 123 °C |
| Fc1ccc(-c2[nH]cc(CCCN3CCN(Cc4ccccc4)CC3)c2-c2ccncc2)cc1 | 153 to 154 °C |
| N#CSCCNc1ccccc1[N+](=O)[O-] | 112 to 113 °C |
| CCOC(=O)C(=O)Nc1ccc2nonc2c1NC(=O)C(=O)OCC | 175 °C |
| Brc1ccc2cc(OCc3ccccc3)c(C34CC5CC(CC(C5)C3)C4)cc2c1 | 150 to 151 °C |
| CC#CC1(O)CCC2C3CCC4=CC(=O)CCC4C3C(=CF)CC21C (configuration not stated) | 148 °C |
| CCOC(=O)C1C(C)(O)CCC(O)C1(C)C (configuration not stated) | 92 to 94 °C |
| COc1ccc(Oc2ccc(/C=C/C(=O)O)cc2)cc1 | 165 to 167 °C |

| Structure (SMILES) | melting point |
| --- | --- |
| O=C1C=CC(Cl)(C(=O)OC(c2ccccc2)c2ccccc2)O1 (configuration not stated) | 99 to 101 °C |
| Nc1nc(COCCO)nc2nccnc12 | 149 to 151 °C |
| Cc1nc2c(N)nc3ccccc3c2n1OC(C)(C)C | 255 to 257 °C |
| CCCn1cc(Cc2ccc(C(=O)OC)cc2OC)c2cc(CCCC(=O)O)ccc21 | 106 to 109 °C |
| Cc1cc(C)cc(OCC(=O)c2ccccc2)c1 | 104 to 105 °C |
| CC(=O)N(C#N)c1ccc(Cc2ccc(N(C#N)C(C)=O)cc2)cc1 | 134 to 136 °C |
| COCOCc1cccc2c(=O)c(C(=O)O)c(-c3ccccc3)oc12 | 142 to 143 °C |
| CCN1C(=O)C(C)(C)C(=O)N(C)c2cc(CN(CCn3ccc4oc(COC)cc4c3=O)Cc3cccnc3C)ccc21 | 123 to 126 °C |
| CCCCCCCCCOC(=O)Oc1ccc(-c2ccc(C#N)cc2)cc1 | 53 to 53.1 °C |
| CCCc1nn(C)c2c(=O)n(CCCNc3ccc(OC(C)(C)C(=O)O)cc3)c(CC)nc12 | 124 to 126 °C |
| CCOC(=O)c1cn(C(=O)c2ccccc2)c2sc(-c3ccc(OC)cc3)c(C)c2c1=O | 110 to 112 °C |
| NC(=O)N(c1ccccc1-c1nc(C2CC2)no1)C1CN2CCC1CC2 (configuration not stated) | 229 to 233 °C |
| Cc1cc2c(-c3cccc(C(F)(F)F)c3)nc(-c3ccc(C(F)(F)F)cc3)nc2s1 | 134 to 136 °C |
| CCOC(=O)Nc1nc(-c2ccccc2)c(-c2nc3ccccc3c(=O)n2-c2cccc(OC)c2)s1 | 204 to 205 °C |
| COc1cc2ccc(-c3ccc(C(=O)O)cc3)cc2cc1C(C)(C)C | 283 °C |
| CC(C)OC(=O)COc1ccc(NC(=O)NC(=O)c2ccc(C(N)=S)cc2)cc1 | 224 to 227 °C |
| COc1ccccc1/C(=C/C=C/C(=O)NCCCCc1cccnc1)c1ccccc1 | 66 to 68 °C |
| CN(Cc1ccccc1)C(=N)N[N+](=O)[O-] | 103 to 107 °C |
| CC(C)(C)ONC(=O)[C@H]1CNCCN1C(=O)OC(C)(C)C | 113 to 114 °C |
| CC(C)(CF)C(O)(Cn1ncnc1S)C(Cl)=CCl (configuration not stated) | 162 to 164 °C |
| CCCCC#CC(C)(O)c1ccc(-c2ccc(F)cc2)cc1 (configuration not stated) | 62 °C |
| CN(c1cc(Cl)ncn1)n1cccc1 | 88 to 89 °C |
| COc1ccc(C(O)(C(F)(F)F)C(F)(F)F)cc1C=O | 160 to 161 °C |
| COc1ccccc1[C@H](c1cccc2ccccc12)[C@@](C)(C#N)C(=O)N1CCN(c2cccc(Br)c2)CC1 | 180 to 182 °C |
| COc1c(C)cnc(CSc2nc(C)cc(=O)[nH]2)c1C | 231 to 233 °C |
| O=C(OCc1ccccc1)c1ncc(OCc2ccccc2)c(OCc2ccccc2)c1Br | 120 °C |

Now from value to molecule:

| melting point | Structure (SMILES) |
| --- | --- |
| 255 °C | COC(=O)c1cc2c(Nc3ccc4[nH]ccc4c3C)c(C#N)cnc2s1 |
| 79.7 °C | COc1ccc(S(=O)(=O)N(C(=O)C(F)(F)F)c2ccc(Cl)cc2Cc2c(F)cccc2F)cc1OC |
| 230 °C | CCOC(=O)c1cn(-c2ccc(F)cn2)c2nc(Cl)c(F)cc2c1=O |
| 123 to 124 °C | COc1ccc2c(c1)NC1(CCN(Cc3ccccc3)CC1)c1cccn1-2 |
| 187 to 189 °C | O=c1[nH]nc(-c2ccc(N3CCCCCC3)c([N+](=O)[O-])c2)c2ccccc12 |
| 230 to 231 °C | COC(=O)Nc1nc(-c2ccccc2)c(-c2nc3ccccc3c(=O)n2-c2cccc(Cl)c2)s1 |
| 203 to 207 °C | CCN(CC)CCCCNc1ncc2c(n1)NC(=O)N(c1cc(OC)cc(OC)c1)C2 |
| 171 to 173 °C | Cc1[nH]c(Cc2ccccc2)nc1C=O |
| 122 to 123 °C | COC(=O)c1ccc(C#CC(O)c2cccc3c2OCCC3(C)C)cc1O (configuration not stated) |
| 331 to 340 °C | Cn1c2ccc(F)cc2c(=O)n2nc(C#N)cc12 |
| 164 to 166 °C | CC(=O)COc1cc(-n2c(=O)cc(C(F)(F)F)n(C)c2=O)c(F)cc1Cl |
| 342 to 345 °C | COc1ccc2[nH]c3cc(N)c4c(c3c2c1)C(=O)NC4=O |
| 152 to 153 °C | O=c1oc(-c2cccc(C(F)(F)F)c2)cc(O)c1SCc1ccccc1 |
| 149 to 151 °C | O=C(Nc1ccc(C(F)(F)F)cc1)N1CC2CCc3ccccc3C2=N1 (configuration not stated) |
| 248 to 250 °C | COc1cc2nc(N)nc(-c3ccc(O)c(I)c3)c2cc1OC |
| 129 °C | Cc1ccc(C2CCCN2S(=O)(=O)c2ccc(Cl)cc2)cc1 (racemic) |
| 75 to 76 °C | COC(=NS(=O)(=O)c1nc(-c2ccccc2Cl)ns1)C(C)C |
| 270 °C | O=C(Nc1cc(S(=O)(=O)N2CCC(O)C2)sc1Cl)c1cnn2c(C(F)(F)F)cc(-c3ccc(C(F)(F)F)cc3)nc12 (racemic) |
| 292 to 293 °C | COc1nc2cc(Cl)c(Cl)c(NS(=O)(=O)c3ccccc3)c2nc1OC |
| 227 to 232 °C | O=C(NNC(=O)c1c(F)c(F)c(F)c(F)c1F)c1cc(Cl)ccc1Cl |
| 209 °C | CC(C)c1ccc(N(Cc2ccc(N(C)C)cc2)C(=O)C2CCCc3c(O)ccc(F)c32)cc1 (configuration not stated) |
| 155 to 157 °C | O=C(Nc1ccc(Cl)cn1)c1ccc(OC(F)F)c2oc3ccccc3c12 |
| 177 to 178 °C | O=C1N[C@H](Cc2cccc(C(F)(F)F)c2)[C@H](c2ccc(F)cc2)O1 (racemic) |

| melting point | Structure (SMILES) |
| --- | --- |
| 80 to 83 °C | CNS(=O)(=O)c1ccc(Oc2ccc(Cl)cc2)cc1 |
| 70 to 72 °C | CCOC(C)=NS(=O)(=O)c1nc(-c2ccccc2Cl)ns1 |
| 274 to 275 °C | CN1C[C@@H]2C[C@H]1CN2c1cc2c(cc1F)c(=O)c(C=O)cn2C1CC1 |
| 205 to 209 °C | CCON=Cc1cc(-n2c(=O)cc(C(F)(F)F)[nH]c2=O)c(Cl)cc1Cl |
| 212 to 214 °C | CCOCc1nc2c(N)nc3ccccc3c2n1CC1(O)CCOCC1 |
| 169 to 171 °C | CON=C(Cn1c(=O)ccc2ccccc21)c1ccc(N2CCCC2)cc1 |
| 162 to 164 °C | COc1cc2c(cc1OC)/C(=C/c1cc(OC)c(OC)c(OC)c1)N(C(=O)C1CCCCC1)CC2 |
| 205 to 207 °C | CCOC(=O)c1nc(Br)n2c1c(=O)n(C)c1cc(C(F)(F)F)ccc12 |
| 127 to 129 °C | CC(=O)NS(=O)(=O)c1ccc(C2=C(c3ccc(F)c(Cl)c3)CCC2)cc1 |
| 184 to 185 °C | CCOC(=O)c1ccc2nc3n(c(=O)c2c1)CCC3=Cc1ccccc1C |
| 260 to 263 °C | O=c1oc(=O)c2ccsc2c2sccc12 |
| 95 °C | Fc1ccc(-c2cc(N3CCC(c4ncc[nH]4)CC3)c3sccc3n2)cc1 |
| 164 to 167 °C | CC1=CC(c2ccc(F)c(Cl)c2)C2=C(CCCC2=O)N1 (configuration not stated) |
| 155 to 157 °C | CN(CC#N)S(=O)(=O)c1cc(-n2c(=O)cc(C(F)(F)F)n(C)c2=O)c(F)cc1Cl |
| 202 to 203 °C | CC1=C(C(=O)OC(C)C)C(c2cccc([N+](=O)[O-])c2)N(C(=O)N(C)C)C(N)=N1 (configuration not stated) |
| 84 to 85 °C | CCOC(=O)C(=O)c1cc(Cl)c(C)cc1F |
| 153 to 155 °C | CNC(=O)c1cc(-c2ccc(OC)cc2)nn(CC#N)c1=O |
| 92 to 97 °C | COc1cc2c(cc1Nc1ncc(Cl)c(N[C@@H]3CCCC[C@H]3NS(C)(=O)=O)n1)CCN(CC(=O)N(C)C)CC2 |
| 221 to 223 °C | Cc1c(C#N)cc(C(C)(C)C)c(O)c1C(=O)Nc1ccc(S(=O)(=O)c2ccc(Br)cc2)cc1C(F)(F)F |
| 138 to 140 °C | CC(C(=O)c1cccc(OCc2ccccc2)c1)N1CCC(n2c(=O)[nH]c3ccccc32)CC1 (configuration not stated) |
| 141 to 142 °C | COc1ccc(-c2cc(=O)n(C3CCCC3)nc2-c2ccc(OC)cc2)cc1 |
| 129 to 131 °C | Cc1cc(C)c(-c2csc3c(Cl)cc(C)nc23)c(C)c1 |
